Measurements published in article PMC10485887, “PET Evaluation of the Novel F-18 Labeled Reversible Radioligand [^18F]GEH200449 for Detection of Monoamine Oxidase-B in the Non-Human Primate Brain” (ACS Chemical Neuroscience, 2023).
“And” between values parts separate entries of the source, which are not always exact repeats. Identical values can stand only once. Like-named read-outs stand apart in the source and are kept apart here.

How the values were obtained:
MAO-B [1] = format: in vivo, Macaca fascicularis
Experimental: Each PET measurement was performed on a separate experimental day. Experiments conducted in the same NHP were separated by at least 6 weeks. Baseline PET measurements were initially undertaken in each of the five NHPs.
Time curves for regional [^18F]GEH200449 binding at baseline were analyzed by kinetic modeling using 1-TC and 2-TC models,[32] and VT as outcome measures. Akaike information criterion[33] and F statistics were applied to select the preferred model. Regional estimates of VT for [^18F]GEH200449 were also obtained using the Logan linear graphical method[34] with t* fixed at 40 min. The analyses were performed using the kinetic modeling tool in PMOD v. 4.3. Occupancy at [^18F]GEH200449 binding sites was estimated based on regional VT values obtained by the Logan method at baseline and after drug administration according to a graphical procedure described in the literature.[22]

MAO-B [2] = test system: MAO-B; parameters: method as in PMID 31589885; details: cited from earlier work

Row | Structure (SMILES) | effect on [^18F]GEH200449 regional radioactivity (MAO-B [1]; 0.15 mg/kg, 15 min before PET, NHP #3) | affinity toward MAO-B (MAO-B [2]) | effect on [^18F]GEH200449 regional radioactivity (MAO-B [1]; 1.0 mg/kg, 15 min before PET, NHP #5) | occupancy at MAO-B ([^18F]GEH200449 binding sites) (MAO-B [1]; 0.75 mg/kg IV, 45 min before radioligand, NHP #4, graphical analysis of VT) | inhibitory effect on [^18F]GEH200449 binding, dose dependency (MAO-B [1]; 0.25 and 0.75 mg/kg pretreatment, NHP #4) | effect on [^18F]GEH200449 regional radioactivity (MAO-B [1]; pretreatment 45 min before radioligand injection)
1 | N#Cc1cc(F)cc(-c2nc(-c3ccc(F)cn3)no2)c1 [AZD9272] | reduction | high affinity |  |  |  | 
2 | CN1CC(=O)NC1=NC(=O)Nc1cccc(Cl)c1 [fenobam] |  | high affinity | reduction |  |  | 
3 | C#CCN[C@@H]1CCc2ccccc21 [rasagiline, N-Propargyl-1R(+)-Aminoindan] |  |  |  | 97% and > 80% | more pronounced after the higher dose | inhibited
